Assay results from ChEMBL document CHEMBL4715829, “Heterodimeric Rifampicin-Tobramycin conjugates break intrinsic resistance of Pseudomonas aeruginosa to doxycycline and chloramphenicol in vitro and in a Galleria mellonella in vivo model” (Eur J Med Chem, 2019).

How the values were obtained:
Format in all cases: functional
Pseudomonas aeruginosa [1] = experiment: Antibacterial activity against Pseudomonas aeruginosa 259-96918 assessed as reduction in bacterial growth by measuring chloramphenicol MIC at 8 ug/ml incubated for 18 hrs in presence of chloramphenicol by broth microdilution assay (reference value: 1024 ug/ml); conditions: dose 8 µg/ml
Pseudomonas aeruginosa [2] = experiment: Antibacterial activity against Pseudomonas aeruginosa 259-96918 assessed as fractional inhibitory concentration incubated for 18 hrs in presence of chloramphenicol by broth microdilution assay
Pseudomonas aeruginosa [3] = experiment: Antibacterial activity against Pseudomonas aeruginosa 91433 assessed as fractional inhibitory concentration incubated for 18 hrs in presence of doxycycline by broth microdilution assay
Pseudomonas aeruginosa [4] = experiment: Antibacterial activity against wild type Pseudomonas aeruginosa PAO1 assessed as reduction in bacterial growth by measuring doxycycline MIC at 0.25 ug/ml incubated for 18 hrs in presence of doxycycline by broth microdilution assay (reference value: 16 ug/ml); conditions: dose 0.25 µg/ml
Pseudomonas aeruginosa [5] = experiment: Antibacterial activity against Pseudomonas aeruginosa 100036 assessed as potentiation of doxycycline-induced antibacterial activity by measuring doxycycline MIC at 9.8 uM incubated for 18 hrs in presence of doxycycline by broth microdilution assay (reference value: 64 ug/ml)
Pseudomonas aeruginosa [6] = experiment: Antibacterial activity against Pseudomonas aeruginosa 101885 assessed as fractional inhibitory concentration incubated for 18 hrs in presence of minocycline by broth microdilution assay
Pseudomonas aeruginosa [7] = experiment: Antibacterial activity against Pseudomonas aeruginosa 262-101856 assessed as fractional inhibitory concentration incubated for 18 hrs in presence of rifampicin by broth microdilution assay
Pseudomonas aeruginosa [8] = experiment: Antibacterial activity against Pseudomonas aeruginosa 264-101354 assessed as fractional inhibitory concentration incubated for 18 hrs in presence of minocycline by broth microdilution assay
Pseudomonas aeruginosa [9] = experiment: Antibacterial activity against Pseudomonas aeruginosa 101243 assessed as fractional inhibitory concentration incubated for 18 hrs in presence of rifampicin by broth microdilution assay
Pseudomonas aeruginosa [10] = experiment: Antibacterial activity against Pseudomonas aeruginosa 260-97103 assessed as fractional inhibitory concentration index incubated for 18 hrs in presence of tigecycline by broth microdilution assay
Pseudomonas aeruginosa [11] = experiment: Antibacterial activity against Pseudomonas aeruginosa 260-97103 assessed as fractional inhibitory concentration index incubated for 18 hrs in presence of minocycline by broth microdilution assay
Pseudomonas aeruginosa [12] = experiment: Antibacterial activity against Pseudomonas aeruginosa 260-97103 assessed as fractional inhibitory concentration index incubated for 18 hrs in presence of rifampicin by broth microdilution assay
Pseudomonas aeruginosa [13] = experiment: Antibacterial activity against Pseudomonas aeruginosa 264-101354 assessed as fractional inhibitory concentration index incubated for 18 hrs in presence of tigecycline by broth microdilution assay
Pseudomonas aeruginosa [14] = experiment: Antibacterial activity against Pseudomonas aeruginosa 91433 assessed as fractional inhibitory concentration index incubated for 18 hrs in presence of tigecycline by broth microdilution assay
Pseudomonas aeruginosa [15] = experiment: Antibacterial activity against Pseudomonas aeruginosa 91433 assessed as fractional inhibitory concentration index incubated for 18 hrs in presence of minocycline by broth microdilution assay
Pseudomonas aeruginosa [16] = experiment: Antibacterial activity against Pseudomonas aeruginosa 91433 assessed as fractional inhibitory concentration index incubated for 18 hrs in presence of rifampicin by broth microdilution assay
Pseudomonas aeruginosa [17] = experiment: Antibacterial activity against Pseudomonas aeruginosa 101243 assessed as fractional inhibitory concentration index incubated for 18 hrs in presence of minocycline by broth microdilution assay
Pseudomonas aeruginosa [18] = experiment: Potentiation of doxycycline-induced antibacterial activity against Pseudomonas aeruginosa PAO750 harboring MexAB-OprM, MexCD-OprJ, MexEF-OprN, Mex JK, MexXY and the OM protein OpmH deletion mutant assessed as fold change in doxycycline MIC at <=9.8 uM incubated for 18 hrs in presence of doxycycline by broth microdilution assay; conditions: dose microM <=9.8
Pseudomonas aeruginosa [19] = experiment: Potentiation of doxycycline-induced antibacterial activity against Pseudomonas aeruginosa 259-96918 assessed as fold change in doxycycline MIC at 9.8 uM incubated for 18 hrs in presence of doxycycline by broth microdilution assay relative to control
Acinetobacter baumannii = experiment: Potentiation of doxycycline-induced antibacterial activity against Acinetobacter baumannii ATCC 17978 assessed as fold change in doxycycline MIC at 9.8 uM incubated for 18 hrs in presence of doxycycline by broth microdilution assay relative to control
Escherichia coli = experiment: Potentiation of chloramphenicol-induced antibacterial activity against Escherichia coli ATCC 25922 assessed as fold change in chloramphenicol MIC at 9.8 uM incubated for 18 hrs in presence of chloramphenicol by broth microdilution assay relative to control
Enterobacter cloacae [20] = experiment: Potentiation of chloramphenicol-induced antibacterial activity against Enterobacter cloacae ATCC 117029 assessed as fold change in chloramphenicol MIC at 9.8 uM incubated for 18 hrs in presence of chloramphenicol by broth microdilution assay relative to control
Pseudomonas aeruginosa [21] = experiment: Antibacterial activity against Pseudomonas aeruginosa 101243 assessed as potentiation of chloramphenicol-induced antibacterial activity by measuring chloramphenicol MIC at 7.6 uM incubated for 18 hrs in presence of chloramphenicol by broth microdilution assay (reference value: 1 ug/ml)
Pseudomonas aeruginosa [22] = experiment: Antibacterial activity against Pseudomonas aeruginosa 259-96918 assessed as potentiation of chloramphenicol-induced antibacterial activity by measuring chloramphenicol MIC at 7.6 uM incubated for 18 hrs in presence of chloramphenicol by broth microdilution assay (reference value: 1024 ug/ml)
Pseudomonas aeruginosa [23] = experiment: Antibacterial activity against Pseudomonas aeruginosa 91433 assessed as potentiation of doxycycline-induced antibacterial activity by measuring doxycycline MIC at 7.6 uM incubated for 18 hrs in presence of doxycycline by broth microdilution assay (reference value: 32 ug/ml)
Pseudomonas aeruginosa [24] = experiment: Antibacterial activity against Pseudomonas aeruginosa 91433 assessed as potentiation of chloramphenicol-induced antibacterial activity by measuring chloramphenicol MIC at 7.6 uM incubated for 18 hrs in presence of chloramphenicol by broth microdilution assay (reference value: 8 ug/ml)
Pseudomonas aeruginosa [25] = experiment: Potentiation of doxycycline-induced antibacterial activity against Pseudomonas aeruginosa 114228 assessed as fold change in doxycycline MIC at 7.6 uM incubated for 18 hrs in presence of doxycycline by broth microdilution assay relative to control
Enterobacter cloacae [26] = experiment: Potentiation of chloramphenicol-induced antibacterial activity against Enterobacter cloacae ATCC 117029 assessed as fold change in chloramphenicol MIC at 7.6 uM incubated for 18 hrs in presence of chloramphenicol by broth microdilution assay relative to control
Pseudomonas aeruginosa [27] = experiment: Antibacterial activity against Pseudomonas aeruginosa 259-96918 assessed as reduction in bacterial growth by measuring chloramphenicol MIC at 2 ug/ml incubated for 18 hrs in presence of chloramphenicol by broth microdilution assay (reference value: 1024 ug/ml); conditions: dose 2 µg/ml
Pseudomonas aeruginosa [28] = experiment: Antibacterial activity against Pseudomonas aeruginosa 100036 assessed as reduction in bacterial growth by measuring chloramphenicol MIC at 4 ug/ml incubated for 18 hrs in presence of chloramphenicol by broth microdilution assay (reference value: 1024 ug/ml); conditions: dose 4 µg/ml
Pseudomonas aeruginosa [29] = experiment: Antibacterial activity against Pseudomonas aeruginosa 264-101354 assessed as reduction in bacterial growth by measuring doxycycline MIC at 4 ug/ml incubated for 18 hrs in presence of doxycycline by broth microdilution assay (reference value: 64 ug/ml); conditions: dose 4 µg/ml

NC[C@H]1O[C@H](O[C@H]2[C@H](O)[C@@H](O[C@H]3O[C@H](CO)[C@@H](O)[C@H](N)[C@H]3O)[C@H](N)C[C@@H]2N)[C@H](N)C[C@@H]1O [TOBRAMYCIN] gave an MIC (Pseudomonas aeruginosa [1]) of 1020 µg/mL, an FIC (Pseudomonas aeruginosa [2]) of 0.25 and an FIC (Pseudomonas aeruginosa [3]) of 0.5. For the same compound, the MIC (Pseudomonas aeruginosa [4]) was 8 µg/mL.

For CO[C@H]1/C=C/O[C@@]2(C)Oc3c(C)c(O)c4c(O)c(c(/C=N/N5CCN(Cc6cn(CCCCCCO[C@@H]7[C@@H](O[C@H]8O[C@H](CO)[C@@H](O)[C@H](N)[C@H]8O)[C@H](N)C[C@H](N)[C@H]7O[C@H]7O[C@H](CN)[C@@H](O)C[C@H]7N)nn6)CC5)c(O)c4c3C2=O)NC(=O)/C(C)=C\C=C\[C@H](C)[C@H](O)[C@@H](C)[C@@H](O)[C@@H](C)[C@H](OC(C)=O)[C@@H]1C.Cl.Cl.Cl.Cl.Cl, the MIC (Pseudomonas aeruginosa [5]) was 1 µg/mL, the FIC (Pseudomonas aeruginosa [6]) was 0.063 and the FIC (Pseudomonas aeruginosa [7]) was less than 0.008. For the same compound, the FIC (Pseudomonas aeruginosa [8]) was 0.063, the FIC (Pseudomonas aeruginosa [9]) was 0.063 and the “fractional inhibitory concentration index (FICI)” value (Pseudomonas aeruginosa [10]) was less than 0.16. For the same compound, the “fractional inhibitory concentration index (FICI)” value (Pseudomonas aeruginosa [11]) was less than 0.13, the “fractional inhibitory concentration index (FICI)” value (Pseudomonas aeruginosa [12]) was less than 0.16 and the “fractional inhibitory concentration index (FICI)” value (Pseudomonas aeruginosa [13]) was 0.19. The “fractional inhibitory concentration index (FICI)” value (Pseudomonas aeruginosa [14]) was 1.13, the “fractional inhibitory concentration index (FICI)” value (Pseudomonas aeruginosa [15]) was less than 0.25 and the “fractional inhibitory concentration index (FICI)” value (Pseudomonas aeruginosa [16]) was 1.13. The “fractional inhibitory concentration index (FICI)” value (Pseudomonas aeruginosa [17]) was less than 0.31, the “fold change (FC)” value (Pseudomonas aeruginosa [18]) was 4 and the “fold change (FC)” value (Pseudomonas aeruginosa [19]) was 4. For the same compound, the “fold change (FC)” value (Acinetobacter baumannii) was 0, the “fold change (FC)” value (Escherichia coli) was 0 and the “fold change (FC)” value (Enterobacter cloacae [20]) was 0.

For CO[C@H]1/C=C/O[C@@]2(C)Oc3c(C)c(O)c4c(O)c(c(/C=N/N5CCN(Cc6cn(CCCCCCCCCCCCO[C@@H]7[C@@H](O[C@H]8O[C@H](CO)[C@@H](O)[C@H](N)[C@H]8O)[C@H](N)C[C@H](N)[C@H]7O[C@H]7O[C@H](CN)[C@@H](O)C[C@H]7N)nn6)CC5)c(O)c4c3C2=O)NC(=O)/C(C)=C\C=C\[C@H](C)[C@H](O)[C@@H](C)[C@@H](O)[C@@H](C)[C@H](OC(C)=O)[C@@H]1C.O=C(O)C(F)(F)F.O=C(O)C(F)(F)F.O=C(O)C(F)(F)F.O=C(O)C(F)(F)F.O=C(O)C(F)(F)F, the MIC (Pseudomonas aeruginosa [21]) was 0.0625 µg/mL, the MIC (Pseudomonas aeruginosa [22]) was 512 µg/mL and the MIC (Pseudomonas aeruginosa [23]) was 0.25 µg/mL. For the same compound, the MIC (Pseudomonas aeruginosa [24]) was 1 µg/mL, the “fold change (FC)” value (Pseudomonas aeruginosa [25]) was 4 and the “fold change (FC)” value (Enterobacter cloacae [26]) was 0.

For CO[C@H]1/C=C/O[C@@]2(C)Oc3c(C)c(O)c4c(O)c(c(/C=N/N5CCN(C)CC5)c(O)c4c3C2=O)NC(=O)/C(C)=C\C=C\[C@H](C)[C@H](O)[C@@H](C)[C@@H](O)[C@@H](C)[C@H](OC(C)=O)[C@@H]1C [RIFAMPIN], the MIC (Pseudomonas aeruginosa [27]) was 1020 µg/mL, the MIC (Pseudomonas aeruginosa [28]) was 1020 µg/mL and the MIC (Pseudomonas aeruginosa [29]) was 32 µg/mL.
